Results: paper PMC7072008 (ACS infectious diseases, 2020)

Tests used:
TGR [1] = target: T1, TGR (Schistosoma mansoni, UniProt Q962Y6); test: NADPH-dependence and reversibility of TGR inhibition; type: biochemical
T1 sequence (Q962Y6 1-598): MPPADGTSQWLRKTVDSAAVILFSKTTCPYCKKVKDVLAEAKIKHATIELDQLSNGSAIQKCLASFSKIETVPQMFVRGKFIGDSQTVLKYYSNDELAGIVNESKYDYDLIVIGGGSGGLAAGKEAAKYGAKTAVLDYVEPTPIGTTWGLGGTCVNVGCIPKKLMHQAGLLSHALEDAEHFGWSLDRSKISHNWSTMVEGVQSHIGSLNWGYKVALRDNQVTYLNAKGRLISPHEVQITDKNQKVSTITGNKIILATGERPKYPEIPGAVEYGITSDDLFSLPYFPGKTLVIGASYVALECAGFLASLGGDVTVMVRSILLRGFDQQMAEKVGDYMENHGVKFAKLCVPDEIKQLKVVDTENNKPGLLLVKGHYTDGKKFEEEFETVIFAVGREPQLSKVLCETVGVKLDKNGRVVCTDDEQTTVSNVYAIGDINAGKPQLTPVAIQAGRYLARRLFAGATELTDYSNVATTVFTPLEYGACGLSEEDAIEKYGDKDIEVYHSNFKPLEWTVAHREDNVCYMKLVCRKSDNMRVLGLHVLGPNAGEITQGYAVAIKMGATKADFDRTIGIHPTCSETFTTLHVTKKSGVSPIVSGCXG

schistosomes = settings: cited from earlier work
TGR [2] = target: T1, TGR; test: NADPH oxidase activity of inhibited TGR; type: biochemical
parasites = settings: 5 μM (physiological concentration); cited from earlier work

SMILES: CC(=O)OC[C@H]1O[C@@H]([S-])[C@H](OC(C)=O)[C@@H](OC(C)=O)[C@@H]1OC(C)=O.CCP(CC)CC.[Au+] [auranofin]
- TGR inhibition in the absence of NADPH (TGR [1]; compounds at 20 times the IC50, TGR 50 nM, incubation without NADPH, desalting): found to inhibit TGR
- Reversibility of TGR inhibition (TGR [1]; incubation with NADPH, activity 30 minutes and 3 hours after desalting): irreversible inhibitors of TGR
- Cure of infected mice (schistosomes): partially cure infected mice
- H2O2 production compared with untreated TGR (TGR [2]; Amplex Red and horseradish peroxidase): same low amounts of H2O2 as untreated TGR
- Decrease of NADPH consumption compared with uninhibited TGR (TGR [2]; after treatment and desalting): about 50%
- Killing of parasites in culture (parasites): kill parasites rapidly
